According to patent US20020026053A1, “Novel 3-(substituted) -2- indolinones compounds and use thereof as inhibitors of protein kinase activity” (priority 1997, published 2002):

Molecular target: T1, Met receptor (EGFR/Met chimeric cells, EMR) (Homo sapiens, UniProt P08581)
T1 construct: expressed in transfected cells; the other entry of the earlier key: EGFR (P00533, Epidermal growth factor receptor)
Test: Met Autophosphorylation Assay
Assay type: biochemical
Conditions: protocol P.130
How it was run: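 Transiently transfected EGFR/Met chimeric (EMR) cells were lysed in HNTG with 1 mM PMSF. Met was captured on plates coated with goat anti-rabbit IgG, then rabbit anti-Met (C-28), using 90 μg lysate/100 μl for 60 min at room temperature. Phosphotyrosine was read by ELISA.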

T1 sequence (P08581 with tags, fused parts or gaps): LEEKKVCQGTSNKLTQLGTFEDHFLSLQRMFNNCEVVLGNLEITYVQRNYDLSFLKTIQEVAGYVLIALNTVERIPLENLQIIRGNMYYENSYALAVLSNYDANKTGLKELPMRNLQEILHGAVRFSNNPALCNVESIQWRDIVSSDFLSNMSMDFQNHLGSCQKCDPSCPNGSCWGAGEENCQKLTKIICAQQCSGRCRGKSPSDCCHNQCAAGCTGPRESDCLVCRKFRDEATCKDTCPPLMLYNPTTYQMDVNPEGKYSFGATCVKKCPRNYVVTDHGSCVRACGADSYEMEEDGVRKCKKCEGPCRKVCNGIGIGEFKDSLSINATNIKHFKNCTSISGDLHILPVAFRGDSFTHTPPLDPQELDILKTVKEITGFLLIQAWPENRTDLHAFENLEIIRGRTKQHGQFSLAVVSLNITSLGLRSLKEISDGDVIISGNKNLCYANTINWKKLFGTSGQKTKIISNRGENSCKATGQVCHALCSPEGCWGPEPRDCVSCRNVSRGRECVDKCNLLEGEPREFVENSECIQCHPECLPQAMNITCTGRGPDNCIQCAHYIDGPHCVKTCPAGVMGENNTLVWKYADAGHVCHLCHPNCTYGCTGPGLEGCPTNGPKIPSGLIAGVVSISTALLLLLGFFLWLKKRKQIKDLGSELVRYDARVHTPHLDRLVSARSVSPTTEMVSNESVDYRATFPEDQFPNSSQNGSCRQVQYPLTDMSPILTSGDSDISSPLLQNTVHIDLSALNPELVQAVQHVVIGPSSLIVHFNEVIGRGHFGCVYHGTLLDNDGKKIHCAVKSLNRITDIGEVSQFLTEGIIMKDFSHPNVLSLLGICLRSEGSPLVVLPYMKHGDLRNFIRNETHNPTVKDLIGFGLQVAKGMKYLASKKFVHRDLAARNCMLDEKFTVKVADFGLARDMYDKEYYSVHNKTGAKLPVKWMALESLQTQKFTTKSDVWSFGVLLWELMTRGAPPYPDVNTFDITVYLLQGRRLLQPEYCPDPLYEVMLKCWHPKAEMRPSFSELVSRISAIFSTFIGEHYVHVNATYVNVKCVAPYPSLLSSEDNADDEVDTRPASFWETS

SMILES	Met Kinase % Inhibition (P.130) [%]
COC1CCCN1C=C1C(=O)Nc2c(Br)cc(Br)cc21 (racemic) [10740/A04]	48.2
COC1CCCN1C=C1C(=O)Nc2ccc(I)cc21 (racemic) [10740/B04]	76.7
Cc1c(Br)cc(Br)c2c1C(=Cc1ccc(CO)o1)C(=O)N2 [10739/H11]	75.8
O=C1Nc2c(Br)cc(Br)cc2C1=Cc1cnc2ccccc2c1 [10740/A02]	56.3
O=C1Nc2c(Br)cc(Br)cc2C1=Cc1ccnc2ccccc12 [10740/A03]	77.8
O=C1Nc2c(Br)cc(Br)cc2C1=Cc1ccsc1 [10740/A05]	79.5
O=C1Nc2c(Br)cc(Br)cc2C1=Cc1ccc2ccccc2n1 [10740/A06]	48.5
Cn1cc(C=C2C(=O)Nc3c(Br)cc(Br)cc32)c2ccccc21 [10740/A07]	54.9
Cc1[nH]c2ccccc2c1C=C1C(=O)Nc2c(Br)cc(Br)cc21 [10740/A08]	43.2
O=C1Nc2c(Br)cc(Br)cc2C1=Cc1cc(Br)cs1 [10740/A10]	45.1
CCCCOc1ccc(C=C2C(=O)Nc3c(Br)cc(Br)cc32)cc1 [10740/A11]	30.3
O=C1Nc2ccc(I)cc2C1=Cc1cnc2ccccc2c1 [10740/B02]	79.2
O=C1Nc2ccc(I)cc2C1=Cc1ccnc2ccccc12 [10740/B03]	84.8
O=C1Nc2ccc(I)cc2C1=Cc1ccsc1 [10740/B05]	82.3
O=C1Nc2ccc(I)cc2C1=Cc1ccc2ccccc2n1 [10740/B06]	68.9
Cn1cc(C=C2C(=O)Nc3ccc(I)cc32)c2ccccc21 [10740/B07]	73.7
Cc1[nH]c2ccccc2c1C=C1C(=O)Nc2ccc(I)cc21 [10740/B08]	65.0
O=C1Nc2ccc(I)cc2C1=Cc1cc(Br)cs1 [10740/B10]	58.0
CCCCOc1ccc(C=C2C(=O)Nc3ccc(I)cc32)cc1 [10740/B11]	68.6
Cc1c(Br)ccc2c1C(=Cc1cnc3ccccc3c1)C(=O)N2 [10740/C02]	45.1
Cc1c(Br)ccc2c1C(=Cc1ccnc3ccccc13)C(=O)N2 [10740/C03]	63.6
COC1CCCN1C=C1C(=O)Nc2ccc(Br)c(C)c21 (stereo not drawn) [10740/C04]	−4.9
Cc1c(Br)ccc2c1C(=Cc1ccsc1)C(=O)N2 [10740/C05]	66.1
Cc1c(Br)ccc2c1C(=Cc1ccc3ccccc3n1)C(=O)N2 [10740/C06]	49.3

SMILES	Met Kinase % Inhibition (P.130) [%]
Cc1c(Br)ccc2c1C(=Cc1cn(C)c3ccccc13)C(=O)N2 [10740/C07]	44.3
Cc1[nH]c2ccccc2c1C=C1C(=O)Nc2ccc(Br)c(C)c21 [10740/C08]	28.7
Cc1c(Br)ccc2c1C(=Cc1cc(Br)cs1)C(=O)N2 [10740/C10]	−1.8
CCCCOc1ccc(C=C2C(=O)Nc3ccc(Br)c(C)c32)cc1 [10740/C11]	−10.8
CNS(=O)(=O)c1ccc2c(c1)C(=Cc1cnc3ccccc3c1)C(=O)N2 [10740/D02]	49.9
CNS(=O)(=O)c1ccc2c(c1)C(=Cc1ccnc3ccccc13)C(=O)N2 [10740/D03]	64.4
CNS(=O)(=O)c1ccc2c(c1)C(=CN1CCCC1OC)C(=O)N2 (stereo not drawn) [10740/D04]	19.4
CNS(=O)(=O)c1ccc2c(c1)C(=Cc1ccsc1)C(=O)N2 [10740/D05]	39.3
CNS(=O)(=O)c1ccc2c(c1)C(=Cc1ccc3ccccc3n1)C(=O)N2 [10740/D06]	41.8
CNS(=O)(=O)c1ccc2c(c1)C(=Cc1cn(C)c3ccccc13)C(=O)N2 [10740/D07]	27.3
CNS(=O)(=O)c1ccc2c(c1)C(=Cc1c(C)[nH]c3ccccc13)C(=O)N2 [10740/D08]	30.3
CNS(=O)(=O)c1ccc2c(c1)C(=Cc1cc(Br)cs1)C(=O)N2 [10740/D10]	16.1
CCCCOc1ccc(C=C2C(=O)Nc3ccc(S(=O)(=O)NC)cc32)cc1 [10740/D11]	−9.1
O=C1Nc2ccc(S(=O)(=O)Nc3ccc(C(F)(F)F)cc3)cc2C1=Cc1cnc2ccccc2c1 [10740/E02]	48.2
O=C1Nc2ccc(S(=O)(=O)Nc3ccc(C(F)(F)F)cc3)cc2C1=Cc1ccnc2ccccc12 [10740/E03]	66.4
COC1CCCN1C=C1C(=O)Nc2ccc(S(=O)(=O)Nc3ccc(C(F)(F)F)cc3)cc21 (stereo not drawn) [10740/E04]	41.8
O=C1Nc2ccc(S(=O)(=O)Nc3ccc(C(F)(F)F)cc3)cc2C1=Cc1ccsc1 [10740/E05]	75.6
O=C1Nc2ccc(S(=O)(=O)Nc3ccc(C(F)(F)F)cc3)cc2C1=Cc1ccc2ccccc2n1 [10740/E06]	16.6
Cn1cc(C=C2C(=O)Nc3ccc(S(=O)(=O)Nc4ccc(C(F)(F)F)cc4)cc32)c2ccccc21 [10740/E07]	19.7
Cc1[nH]c2ccccc2c1C=C1C(=O)Nc2ccc(S(=O)(=O)Nc3ccc(C(F)(F)F)cc3)cc21 [10740/E08]	39.0
O=C1Nc2ccc(S(=O)(=O)Nc3ccc(C(F)(F)F)cc3)cc2C1=Cc1cc(Br)cs1 [10740/E10]	61.9
CCCCOc1ccc(C=C2C(=O)Nc3ccc(S(=O)(=O)Nc4ccc(C(F)(F)F)cc4)cc32)cc1 [10740/E11]	−16.9
O=C1Nc2ccc(S(=O)(=O)N3CCOCC3)cc2C1=Cc1cnc2ccccc2c1 [10740/F02]	59.4
O=C1Nc2ccc(S(=O)(=O)N3CCOCC3)cc2C1=Cc1ccnc2ccccc12 [10740/F03]	32.8

SMILES	Met Kinase % Inhibition (P.130) [%]
COC1CCCN1C=C1C(=O)Nc2ccc(S(=O)(=O)N3CCOCC3)cc21 (stereo not drawn) [10740/F04]	−5.2
O=C1Nc2ccc(S(=O)(=O)N3CCOCC3)cc2C1=Cc1ccsc1 [10740/F05]	52.1
O=C1Nc2ccc(S(=O)(=O)N3CCOCC3)cc2C1=Cc1ccc2ccccc2n1 [10740/F06]	25.3
Cn1cc(C=C2C(=O)Nc3ccc(S(=O)(=O)N4CCOCC4)cc32)c2ccccc21 [10740/F07]	28.4
Cc1[nH]c2ccccc2c1C=C1C(=O)Nc2ccc(S(=O)(=O)N3CCOCC3)cc21 [10740/F08]	35.9
O=C1Nc2ccc(S(=O)(=O)N3CCOCC3)cc2C1=Cc1cc(Br)cs1 [10740/F10]	58.3
CCCCOc1ccc(C=C2C(=O)Nc3ccc(S(=O)(=O)N4CCOCC4)cc32)cc1 [10740/F11]	42.9
O=C1Nc2ccc(CCCl)cc2C1=Cc1cnc2ccccc2c1 [10740/G02]	55.2
O=C1Nc2ccc(CCCl)cc2C1=Cc1ccnc2ccccc12 [10740/G03]	34.8
COC1CCCN1C=C1C(=O)Nc2ccc(CCCl)cc21 (stereo not drawn) [10740/G04]	9.1
O=C1Nc2ccc(CCCl)cc2C1=Cc1ccsc1 [10740/G05]	30.3
O=C1Nc2ccc(CCCl)cc2C1=Cc1ccc2ccccc2n1 [10740/G06]	25.0
Cn1cc(C=C2C(=O)Nc3ccc(CCCl)cc32)c2ccccc21 [10740/G07]	10.8
Cc1[nH]c2ccccc2c1C=C1C(=O)Nc2ccc(CCCl)cc21 [10740/G08]	33.4
O=C1Nc2ccc(CCCl)cc2C1=Cc1cc(Br)cs1 [10740/G10]	19.4
CCCCOc1ccc(C=C2C(=O)Nc3ccc(CCCl)cc32)cc1 [10740/G11]	13.3
Cc1c(Br)cc(Br)c2c1C(=Cc1cnc3ccccc3c1)C(=O)N2 [10740/H02]	28.7
Cc1c(Br)cc(Br)c2c1C(=Cc1ccnc3ccccc13)C(=O)N2 [10740/H03]	17.5
COC1CCCN1C=C1C(=O)Nc2c(Br)cc(Br)c(C)c21 (stereo not drawn) [10740/H04]	30.9
Cc1c(Br)cc(Br)c2c1C(=Cc1ccsc1)C(=O)N2 [10740/H05]	25.6
Cc1c(Br)cc(Br)c2c1C(=Cc1ccc3ccccc3n1)C(=O)N2 [10740/H06]	33.4
Cc1c(Br)cc(Br)c2c1C(=Cc1cn(C)c3ccccc13)C(=O)N2 [10740/H07]	1.5
Cc1[nH]c2ccccc2c1C=C1C(=O)Nc2c(Br)cc(Br)c(C)c21 [10740/H08]	28.1
Cc1c(Br)cc(Br)c2c1C(=Cc1cc(Br)cs1)C(=O)N2 [10740/H10]	43.7
